Test results reported in paper PMC7663597, “Structure–Activity Relationship of Aloperine Derivatives as New Anti–Liver Fibrogenic Agents” (Molecules, 2020).
Where a name gives a salt, the structure may show the parent alone. Marks after values point to notes of the source that are not given here.

Columns and labels:
[1] = system: COL1A1 promotor; experiment: COL1A1 promotor luciferase reporter gene assay in TGF-β1-treated LX-2 cells; type: cell-based, human; conditions: for inhibition at 40 µM / inhibition at 80 µM: Homo sapiens, LX-2, 24 h; for inhibition at 40 µM: 24 h with TGF-β1, read-out: Inhibition Percentage 40 μM (inhibition rate of COL1A1 promotor's activity); for inhibition at 80 µM: 24 h with TGF-β1, read-out: Inhibition Percentage 80 μM (inhibition rate of COL1A1 promotor's activity)
Experimental: A single luciferase reporter gene detection model was applied to evaluate the inhibitory effects of all target compounds on the expression of COL1A1 promotor in human hepatic stellate LX-2 cells at the concentrations of 40 and 80 μM, taking EGCG as the positive control. The LX-2 cell lines were transfected with COL1A1 promotor luciferase plasmid pGL4.17-COL1A1P for 24 h, then simultaneously treated with TGF-β1 and a tested compound for 24 h.
(§1) Cells were maintained on Dulbecco’s Modified Eagle’s medium (DMEM), laid on 96-well plate. DMEM medium was supplemented with 10% fetal bovine serum (FBS) at 37 °C humidified atmosphere with 5% CO2. Furthermore, serum-free culture was required until the cells were confluent at 90−95%. 24 h later the cells were treated with a tested compound (40 and 80 μM) for 24 h. The COL1A1 promotor activity was detected by the Bright-Glo luciferase assay system. Alternatively, to test the acute effects of compound on luciferase activity, 24 h later the cells were lysed and the lysate was treated with a tested compound (80 μM) for 2 h, then the luciferase was detected by the Bright-Glo luciferase assay system (Promega, Madison, WI, USA).

[2] = HepG2 cell survival, MTT assay; type: cell-based; conditions: human, HepG2 cells
Experimental: HepG2 cell survival was measured by MTT assay. HepG2 cells, at density of 6x10^3 cells/well in 96-well culture plates, were incubated with the aloperine derivates at various concentrations until the cells at 50% confluence for 24 h. 20 µL of the MTT (5 mg/mL) solution was added to each plate and incubated with 5% CO2, 37 °C for 4 h. Subsequently, withdrawing the culture supernatant containing MTT, 150 µL DMSO was used for dissolving the formazan crystal. The absorbance was measured using a microplate reader at 570 nm.

[3] = LX-2 cell survival, sulforhodamine B (SRB) assay; type: cell-based; conditions: human, LX-2 cells
Experimental: LX-2 cell survival was measured by sulforhodamine B (SRB) assay. The cells were seeded in 96-well plates at the density of 2 × 10^4/well and cultured in DMEM/GlutaMAX I medium with 10% fetal bovine serum (FBS) with 5% CO2, 37 °C. The cells were treated by the aloperine derivates for 24 h, washed by PBS for three times. Then the cells were fixed with 10% (wt/vol) trichloroacetic acid for 1 h and stained with SRB for 0.5 h. Subsequently, the protein-bound dye was dissolved in 10 mM Tris base solution after removing excess SRB dye washing repeatedly with 1% (vol/vol) acetic acid, the optical density (OD) was determined at 510 nm with a microplate reader.

[4] = target: T1, luciferase (Photinus pyralis, UniProt P08659, K549A/L550V/N119G/N50D/S548I); experiment: Acute effect on luciferase activity (cell lysate, 2 h); type: biochemical; conditions: 80 μM, 2-h treatment
T1 construct: expressed in transfected cells; host or cells: human hepatic stellate LX-2 cells transfected with pGL4.17-COL1A1P; lysate used
T1 sequence (P08659 whole entry N50D/N119G/S548I/K549A/L550V): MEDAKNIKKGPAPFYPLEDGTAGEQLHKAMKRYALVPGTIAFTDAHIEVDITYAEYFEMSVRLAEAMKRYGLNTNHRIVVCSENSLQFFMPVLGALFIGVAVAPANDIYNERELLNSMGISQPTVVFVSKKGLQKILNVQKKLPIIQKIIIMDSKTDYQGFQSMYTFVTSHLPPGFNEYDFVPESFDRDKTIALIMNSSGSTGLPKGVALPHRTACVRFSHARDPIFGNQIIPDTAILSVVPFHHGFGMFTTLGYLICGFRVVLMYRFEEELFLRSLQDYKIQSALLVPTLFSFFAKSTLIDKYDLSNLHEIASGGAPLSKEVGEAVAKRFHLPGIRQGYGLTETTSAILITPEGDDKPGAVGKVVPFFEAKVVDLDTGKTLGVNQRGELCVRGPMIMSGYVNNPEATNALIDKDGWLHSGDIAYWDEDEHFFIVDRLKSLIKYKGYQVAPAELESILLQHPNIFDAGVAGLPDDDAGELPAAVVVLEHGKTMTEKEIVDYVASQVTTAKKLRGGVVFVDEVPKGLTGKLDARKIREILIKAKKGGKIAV
Experimental: Then, their anti-COL1A1 potencies were verified by testing the half maximal inhibition concentration (IC50) values upon COL1A1 expression expression in LX-2 cells. […] Then, compounds 4i, 4n and 4p with the lower IC50 values were selected as the key compounds for further studies.
as §1

| Compound | melting point | inhibition at 40 µM ([1]; 40 μM) | inhibition at 80 µM [1] | further results |
| --- | --- | --- | --- | --- |
| O=C(CN1CCCC2=C[C@H]3C[C@H](CN4CCCC[C@H]34)[C@@H]21)NC1CCOCC1 (as salt: hydrochloride) [4b, 12N-N′-(Tetrahydro-2H-pyran-4-yl)carbamoylmethyl aloperine hydrochloride] | 199 to 201 °C |  |  |  |
| CCNC(=O)CN1CCCC2=C[C@H]3C[C@H](CN4CCCC[C@H]34)[C@@H]21 [4a, 12N-N′-Ethylcarbamoylmethyl aloperine] | 69 to 71 °C | 7.1 ± 25.6% | 33.1 ± 1.6% |  |
| O=C(CN1CCCC2=C[C@H]3C[C@H](CN4CCCC[C@H]34)[C@@H]21)NC1CCOCC1 [4b, 12N-N′-(Tetrahydro-2H-pyran-4-yl)carbamoylmethyl aloperine hydrochloride] |  | 19 ± 3.8% | 29.8 ± 10% |  |
| O=C(CN1CCCC2=C[C@H]3C[C@H](CN4CCCC[C@H]34)[C@@H]21)NC12CC3CC(CC(C3)C1)C2 [4c, 12N-N′-Adamantylcarbamoylmethyl aloperine] | 176 to 178 °C | 23.7 ± 7.7% | 39.2 ± 1.2% |  |
| O=C(CN1CCCC2=C[C@H]3C[C@H](CN4CCCC[C@H]34)[C@@H]21)Nc1ccccc1 [4d, 12N-N′-Phenylcarbamoylmethyl aloperine] | 66 to 68 °C | 18.6 ± 8.6% | 28.3 ± 2.8% |  |
| O=C(CN1CCCC2=C[C@H]3C[C@H](CN4CCCC[C@H]34)[C@@H]21)Nc1ccc(F)cc1 [4e, 12N-N′-(4-Fluorophenyl)carbamoylmethyl aloperine] | 119 to 121 °C | 21.4 ± 1.5% | 26.5 ± 0.5% |  |
| Cc1cccc(NC(=O)CN2CCCC3=C[C@H]4C[C@H](CN5CCCC[C@H]45)[C@@H]32)c1 [4f, 12N-N′-(3-Methylphenyl)carbamoylmethyl aloperine] | 40 to 42 °C | 21.2 ± 0.4% | 33.8 ± 8% |  |
| O=C(CN1CCCC2=C[C@H]3C[C@H](CN4CCCC[C@H]34)[C@@H]21)Nc1cccc(OC(F)(F)F)c1 [4g, 12N-N′-(m-Trifluoromethoxyphenyl)carbamoylmethyl aloperine] | 50 to 52 °C | 67.8 ± 14.9% | 95.5 ± 5.5% |  |
| O=C(CN1CCCC2=C[C@H]3C[C@H](CN4CCCC[C@H]34)[C@@H]21)Nc1ccc(-c2cc3ccccc3[nH]2)cc1 [4h, 12N-N′-[4-(1H-Indol-2-yl)phenyl]carbamoylmethyl aloperine] | 219 to 221 °C | 99.9% | 99.9% | CC50 at 24 h [2]: 18 ± 1.9 µM; IC50 (concentration required to inhibit 50% of COL1A1 promotor's activity) [1]: failed to give a dose-dependent inhibition; Inhibition Percentage 40 μM (inhibition rate of COL1A1 promotor's activity) ([1]; 40 μM, 24 h with TGF-β1): 100.0 ± 0.0%; CC50 at 24 h [3]: 7.5 ± 0.4 µM; Acute effect on luciferase activity [4]: minimal inhibition |
| COC(=O)c1ccc(C)c(NC(=O)CN2CCCC3=C[C@H]4C[C@H](CN5CCCC[C@H]45)[C@@H]32)c1 [4j, 12N-N′-(2-Methyl-5-methoxycarbonylphenyl)carbamoylmethyl aloperine] | 75 to 77 °C | 3.8 ± 6.1% | 32.4 ± 2.7% |  |
| Cc1cc(NC(=O)CN2CCCC3=C[C@H]4C[C@H](CN5CCCC[C@H]45)[C@@H]32)cc(C)c1C [4k, 12N-N′-(3,4,5-Trimethylphenyl)carbamoylmethyl aloperine] | 183 to 185 °C | 50.1 ± 6.9% | 70.7 ± 1.5% |  |
| O=C(CN1CCCC2=C[C@H]3C[C@H](CN4CCCC[C@H]34)[C@@H]21)Nc1cccc2ncccc12 [4l, 12N-N′-(5-Quinolyl)carbamoylmethyl aloperine] | 74 to 76 °C | 31.5 ± 2.6% | 22.4 ± 16.1% |  |
| CN(C(=O)CN1CCCC2=C[C@H]3C[C@H](CN4CCCC[C@H]34)[C@@H]21)c1ccccc1 [4m] | 73 to 75 °C | 19.9 ± 5.2% | 34.6 ± 2.5% |  |
| O=C(CN1CCCC2=C[C@H]3C[C@H](CN4CCCC[C@H]34)[C@@H]21)N1CCCC1 [4o, 12N-N′-(1-Pyrrolidinyl)carbamoylmethyl aloperine] | 78 to 80 °C | 16.5 ± 9.8% | 36.7 ± 9.9% |  |
| O=C(CN1CCCC2=C[C@H]3C[C@H](CN4CCCC[C@H]34)[C@@H]21)NS(=O)(=O)c1ccccc1 [7a, 12N-N′-Benzenesulfonyl carbamoylmethyl aloperine] | 113 to 115 °C | 21.5 ± 4.3% | 17.1 ± 6.3% |  |
| O=C(CN1CCCC2=C[C@H]3C[C@H](CN4CCCC[C@H]34)[C@@H]21)NS(=O)(=O)c1cccc(C(F)(F)F)c1 [7b, 12N-N′-3-Trifluoromethylbenzenesulfonyl carbamoylmethyl aloperine] | 105 to 107 °C | 23.5 ± 13.5% | 20.2 ± 1.9% |  |
| O=C(CN1CCCC2=C[C@H]3C[C@H](CN4CCCC[C@H]34)[C@@H]21)NS(=O)(=O)c1ccc(Br)c(C(F)(F)F)c1 [7c, 12N-N′-(4-Bromo-3-trifluoromethylbenzenesulfonyl)carbamoylmethyl aloperine] | 79 to 81 °C | 32.9 ± 3.4% | 31.8 ± 3.1% |  |
| O=C(CN1CCCC2=C[C@H]3C[C@H](CN4CCCC[C@H]34)[C@@H]21)NS(=O)(=O)c1ccc2ccccc2c1 [7d] | 93 to 95 °C | 18.8 ± 5.2% | 9.4 ± 3.7% |  |
| CCS(=O)(=O)NCC(=O)N1CCCC2=C[C@H]3C[C@H](CN4CCCC[C@H]34)[C@@H]21 [10a, 12N-N′-Ethylsulfonylaminoacetyl aloperine] | 145 to 147 °C | 34 ± 7% | 34.9 ± 14.7% |  |
| CCCCS(=O)(=O)NCC(=O)N1CCCC2=C[C@H]3C[C@H](CN4CCCC[C@H]34)[C@@H]21 [10b, 12N-N′-n-Butylsulfonylaminoacetyl aloperine] | 98 to 100 °C | 41.1 ± 9.6% | 23.7 ± 22.7% |  |
| O=C(CNS(=O)(=O)c1ccccc1)N1CCCC2=C[C@H]3C[C@H](CN4CCCC[C@H]34)[C@@H]21 [10c, 12N-N′-Benzenesulfonylaminoacetylaloperine] | 63 to 65 °C | 23.7 ± 8.3% | 20.2 ± 6.4% |  |
| O=C(CNS(=O)(=O)c1cccc(Br)c1)N1CCCC2=C[C@H]3C[C@H](CN4CCCC[C@H]34)[C@@H]21 [10d, 12N-N′-m-Bromobenzenesulfonylaminoacetyl aloperine] | 101 to 103 °C | 28.5 ± 12.3% | 27.1 ± 10.1% |  |
| O=C(CNS(=O)(=O)c1cccc(C(F)(F)F)c1)N1CCCC2=C[C@H]3C[C@H](CN4CCCC[C@H]34)[C@@H]21 [10e, 12N-N′-m-Trifluoromethylbenzenesulfonylaminoacetyl aloperine] | 91 to 93 °C | 29.7 ± 5.1% | 26.7 ± 21.3% |  |
| O=C(CNS(=O)(=O)c1cccc(OC(F)(F)F)c1)N1CCCC2=C[C@H]3C[C@H](CN4CCCC[C@H]34)[C@@H]21 [10f, 12N-N′-m-Trifluoromethoxybenzenesulfonylaminoacetyl aloperine] | 81 to 83 °C | 43.4 ± 15.9% | 41.4 ± 7.4% |  |
| O=C(O[C@@H]1Cc2c(O)cc(O)cc2O[C@@H]1c1cc(O)c(O)c(O)c1)c1cc(O)c(O)c(O)c1 [EGCG, reference compound] |  |  |  | Inhibition Percentage (inhibition rate of COL1A1 promotor's activity) ([1]; at the concentration of 25 μM (positive control)): 27.5 ± 7.9^e % |
| C1=C2CCCN[C@H]2[C@@H]2C[C@H]1[C@H]1CCCCN1C2 [compound 1, Aloperine] |  | 4.7 ± 3.7% | 2.6 ± 5.2% |  |
